Laboratory results reported in patent US9867811B2, “Method of treating atherosclerosis in high triglyceride subjects” (NOVARTIS AG, priority 2011, dated 2018).

Experiments:
CETP = target: T1, CETP (Macaca fascicularis, UniProt P47896); assay: Plasma CETP activity in cynomolgus monkeys on chow or high carbohydrate diet; type: in vivo; details: for CETP activity % Δ vs day 0, Day 7, Chow / CETP activity % Δ vs day 0, Day 14, Chow: chow diet; for CETP activity % Δ vs day 0, Day 7, Chow / CETP activity % Δ vs day 0, Day 7, High CHO: day 7, Example 8 3 mg/kg; for CETP activity % Δ vs day 0, Day 7, Chow / CETP activity % Δ vs day 0, Day 14, Chow / CETP activity % Δ vs day 0, Day 7, High CHO / CETP activity % Δ vs day 0, Day 14, High CHO: Anacetrapib 10 mg/kg, mean ± SD; for CETP activity % Δ vs day 0, Day 14, Chow / CETP activity % Δ vs day 0, Day 14, High CHO: day 14, Example 8 3 mg/kg; for CETP activity % Δ vs day 0, Day 7, High CHO / CETP activity % Δ vs day 0, Day 14, High CHO: high carbohydrate diet
T1 construct: from tissue; host or cells: EDTA plasma of cynomolgus monkeys dosed orally
T1 sequence (P47896 18-493): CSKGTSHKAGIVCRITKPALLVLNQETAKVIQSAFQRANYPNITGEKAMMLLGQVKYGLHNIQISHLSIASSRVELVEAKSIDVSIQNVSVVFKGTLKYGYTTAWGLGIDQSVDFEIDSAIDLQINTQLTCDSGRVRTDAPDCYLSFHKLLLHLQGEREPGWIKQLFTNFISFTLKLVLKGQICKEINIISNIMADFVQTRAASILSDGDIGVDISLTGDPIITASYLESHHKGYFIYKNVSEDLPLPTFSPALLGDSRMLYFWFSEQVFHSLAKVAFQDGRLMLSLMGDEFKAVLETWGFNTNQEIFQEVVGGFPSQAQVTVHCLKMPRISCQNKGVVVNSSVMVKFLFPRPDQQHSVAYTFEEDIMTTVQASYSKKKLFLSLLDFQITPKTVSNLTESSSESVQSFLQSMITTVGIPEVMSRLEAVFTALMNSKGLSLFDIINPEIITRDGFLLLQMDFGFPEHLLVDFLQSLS
Excerpt: (§1) Normal male cynomolgus monkeys (n=17) weighing between 8-14 kg are placed on a high-carbohydrate, low-fat diet. The caloric composition of the diet is approximately 13.4% protein, 79.1% carbohydrate (sugar to starch ratio 50:50) and 7.5% fat. Calories are derived from standard monkey chow (LabDiet® 5047, PMI, Richmond, Ind. or LabDiet® 5000, Balanced Fiber diet, PMI, Richmond, Ind.) in quantities necessary to meet the protein and fat requirements, with the remaining calories provided by sugar-sweetened cereals, candies, and fruit (banana, orange, cantaloupe, honeydew, pineapple). The high-carbohydrate (CHO) diet will be fed for 18 days (4 days of pre-drug diet, 14 days of drug treatment), after which time they will return to their regular chow diets for a 14 day washout period followed by a second 14 day dosing phase of the study (normal diet).
(§2) Compound of Example 8 is dissolved at 30 mg/mL in 1M NaOH+ethanol:maisoel glyceride:propylene glycol:cremophor RH40 (10:36:9:45) and diluted 1:10 in ddH2O. […] The formulations are prepared each day (weekend doses are prepared on Friday) and stored stirring and protected from light at room temperature until dosing. Artificial flavor and color will be added to the dose when prepared.
(§3) The animals will ingest the compounds (1 mL/kg) voluntarily from a plastic syringe offered at their home cage at approximately 8 am daily. Animals will be fed 60 minutes after the dose is administered.
(§4) Blood collection will take place weekly during each dosing phase. Animals are fasted overnight (approximately 16 hours) prior to blood collection. Blood samples are collected from a saphenous vein via needle and syringe and put into 2 mL EDTA-coated tubes that are immediately placed on ice until centrifugation. Samples are centrifuged at 3,000 rpm for 20 minutes. The plasma is collected, divided into aliquots (listed below), and stored at −70° C. until analysis.

[1] = HDL-C in cynomolgus monkeys on chow or high carbohydrate diet; type: in vivo; details: Anacetrapib 10 mg/kg, mean ± SD; for HDL-C % Δ vs day 0, Day 7, Chow / HDL-C % Δ vs day 0, Day 14, Chow: chow diet; for HDL-C % Δ vs day 0, Day 7, Chow / HDL-C % Δ vs day 0, Day 7, High CHO: day 7, Example 8 3 mg/kg; for HDL-C % Δ vs day 0, Day 14, Chow / HDL-C % Δ vs day 0, Day 14, High CHO: day 14, Example 8 3 mg/kg; for HDL-C % Δ vs day 0, Day 7, High CHO / HDL-C % Δ vs day 0, Day 14, High CHO: high carbohydrate diet
Excerpt: as §1, §2, §3, §4

In the case of `COc1cc(F)c(C(C)C)cc1-c1ccc(C(F)(F)F)cc1CN1C(=O)O[C@H](c2cc(C(F)(F)F)cc(C(F)(F)F)c2)[C@@H]1C` [Anacetrapib, reference compound], the “CETP activity % Δ vs day 0, Day 7, Chow” value (CETP) is reported as −62 ± 15%, the “CETP activity % Δ vs day 0, Day 14, Chow” value (CETP) is reported as −59 ± 19% and the “CETP activity % Δ vs day 0, Day 7, High CHO” value (CETP) is reported as −33 ± 23%. For the same compound, the “CETP activity % Δ vs day 0, Day 14, High CHO” value (CETP) was −24 ± 22%, the “HDL-C % Δ vs day 0, Day 7, Chow” value [1] was 141 ± 45% and the “HDL-C % Δ vs day 0, Day 14, Chow” value [1] was 136 ± 28%. For the same compound, the “HDL-C % Δ vs day 0, Day 7, High CHO” value [1] was 172 ± 34% and the “HDL-C % Δ vs day 0, Day 14, High CHO” value [1] was 184 ± 45%.

With `CC[C@@H]1C[C@H](N(Cc2cc(C(F)(F)F)cc(C(F)(F)F)c2)c2ncc(-c3cnn(C)c3)cn2)C[C@H](CC)N1C(=O)O[C@H]1CC[C@H](C(=O)O)CC1` [Example 8] the “CETP inhibitory activity in monkeys with diet-induced hypertriglyceridemia” value (CETP; TG>500 mg/dL) was “retains CEPT inhibitory activity”, the “CETP activity % Δ vs day 0, Day 7, Chow” value (CETP) was −78 ± 7% and the “CETP activity % Δ vs day 0, Day 14, Chow” value (CETP) was −73 ± 9%. The “CETP activity % Δ vs day 0, Day 7, High CHO” value (CETP) was −72 ± 7%, the “CETP activity % Δ vs day 0, Day 14, High CHO” value (CETP) was −66 ± 10% and the “HDL-C % Δ vs day 0, Day 7, Chow” value [1] was 144 ± 57%. The “HDL-C % Δ vs day 0, Day 14, Chow” value [1] was 142 ± 33%, the “HDL-C % Δ vs day 0, Day 7, High CHO” value [1] was 210 ± 24% and the “HDL-C % Δ vs day 0, Day 14, High CHO” value [1] was 241 ± 29%.
